Data set [1] can be described thus: Basic pharmacokinetics after i.v. bolus in rats. The format is in vivo, rat (Sprague-Dawley). Conditions: rat. On the procedure:
Blood samples were centrifuged to obtain plasma. […] Plasma and urine samples were stored at −80° C. […] NAB 741 was eluted at 6.65±0.05 min and NAB739 was eluted at 9.45±0.05 min.

Data set [2] has as its system E. coli (ATCC25922 and IH3080), K. pneumoniae ATCC13883, and E. cloacae ATCC23355. The format is cell-based. Conditions: all four strains; NAB741 alone. On the procedure:
MICs were determined by using E-strips (Biodisk Ltd., Solna, Sweden) according to the manufacturer's instructions.

The next data set concerns Ac. baumannii ATCC19606. The data set is described as follows: E-test MIC of antibacterial agents on Mueller-Hinton agar with or without NAB741. The format is cell-based. The note with it: Acinetobacter baumannii; A. baumannii ATCC19606; meropenem alone; read-out: MIC of meropenem at NAB 741 concn 0 μg/ml. From the text: (§1) Five of the strains originated from ATCC. Acinetobacter baumannii F264 was purchased from Mobidiag Ltd., Helsinki, Finland. The source of E. coli IH3080 has been given in Example 2.
(§2) Sensitization factor was defined as in Example 4. NAB7061 sensitized the meropenem-resistant strain F264 to meropemen by a factor >4.

The subject of the next data set is Ac. baumannii F264. Described as above. Format: cell-based. Conditions: Acinetobacter baumannii; A. baumannii F264 (meropenem-resistant); meropenem alone; read-out: MIC of meropenem at NAB 741 concn 0 μg/ml.
Source text: as §1, §2

The conditions of data set [3]: rat, in vivo; cited from earlier work.
Another data set relates to E. coli IH3080. The data set can be described thus: Agar well growth inhibition on LB plates with or without rifampin. The note with it: well containing 4 micrograms of the compound; for Activity w. rifampin: growth inhibition around a well: LB plate containing rifampin 0.1 micrograms/ml; for Direct activity: growth inhibition around a well: LB plates. Format: cell-based, Escherichia coli.

The test system of another data set is bacteria. Conditions: Sakura et al. (2004); cited from earlier work.

Read-outs that look alike come from different tables or passages of the source. Positions of bridges follow the written chain, without caps; N, C: chain ends. Non-standard residues stand in square brackets, D forms with d. Residues, ends and D or L forms follow the SMILES beside them. *: point of attachment. Octanoyl = CCCCCCCC(=O)*; Dab = NCC[C@H](N)C(=O)O

For `CCCCCCCC(=O)N[C@H](C(=O)N[C@H](CO)C(=O)N[C@H]1CCNC(=O)[C@H]([C@@H](C)O)NC(=O)[C@H](CCN)NC(=O)[C@H](CCN)NC(=O)[C@H](CC(C)C)NC(=O)[C@@H](Cc2ccccc2)NC(=O)[C@H](CCN)NC1=O)[C@@H](C)O` [NAB 739] (Octanoyl-T[dS][Dab][Dab][dF]L[Dab][Dab]T; lactam 3-C), in data set [1] (acetate 1 mg/kg i.v. bolus), the clearance – broadly, a measure of how efficiently the substance is removed, as volume per time – turned out to be 2.63 ± 0.54 mL/min/kg; the renal clearance is 0.53 ± 0.30 mL/min/kg; the volume of distribution turned out to be 0.222 ± 0.0205 L/kg. In data set [1] (acetate 1 mg/kg i.v. bolus, plasma), the half-life – broadly, the time needed for the level to fall by half in the phase considered – stood at 1.15 ± 0.365 h.
On to `CC(=O)N[C@H](C(=O)N[C@H](CO)C(=O)N[C@H]1CCNC(=O)[C@H]([C@@H](C)O)NC(=O)[C@H](CCN)NC(=O)[C@H](CCN)NC(=O)[C@H](CC(C)C)NC(=O)[C@@H](Cc2ccccc2)NC(=O)[C@H](CCN)NC1=O)[C@@H](C)O` [NAB 741, acetyl-Thr-DSer-cy[Dab-Dab-DPhe-Leu-Dab-Dab-Thr-]] (Ac-T[dS][Dab][Dab][dF]L[Dab][Dab]T; lactam 3-C (inferred)), for which, in data set [2], the “MIC of NAB741” value is above 16 µg/mL. Besides, in data set [1] (in vivo, iv, 1 mg/kg), the urinary recovery was 50.9±13.6 % of dose in 24 h and the volume of distribution was found to be 0.243 ± 0.024 L/kg.
As for `C[C@@H](O)[C@H]1C(=O)N2C(C(=O)O)=C(S[C@@H]3CN[C@H](C(=O)N(C)C)C3)[C@H](C)[C@H]12` [meropenem], the MIC is 0.75 µg/mL with Ac. baumannii ATCC19606 and above 32 µg/mL in the data set with Ac. baumannii F264.
In the case of Colistin (polymyxin E), in data set [3], the clearance is 5.2 ± 0.4 mL/min/kg, the half-life is 1.24 ± 0.22 h, the renal clearance was 0.010 ± 0.008 mL/min/kg and the volume of distribution was 0.496 ± 0.06 L/kg.
Turning to Deacylcolistin, in the data set with E. coli IH3080, the “Activity w. rifampin: growth inhibition around a well” value is recorded as 87 square millimeters and the “Direct activity: growth inhibition around a well” value was 79 square millimeters.
The corresponding values for Deacylpolymyxin B are 79 square millimeters and 57 square millimeters.
Consider Polymyxin B, for which, in the data set on E. coli IH3080, the “Activity w. rifampin: growth inhibition around a well” value came to 95 square millimeters and the “Direct activity: growth inhibition around a well” value is 79 square millimeters.
In the same order, the values of Polymyxin B heptapeptide are 0 square millimeters and 0 square millimeters.
In the same order, the values of “Polymyxin B nonapeptide [Polymyxin B nonpeptide]” are 20 square millimeters and 0 square millimeters.
The corresponding values for “acetyl-Thr-DAsn-cy[Dab-Dab-DPhe-Leu-Dab-Dab-Thr-] [NAB 745]” are 50 square millimeters and 0 square millimeters.
For the compound “octanoyl polymyxin B heptapeptide [Octanoyl PMBH]”, in the data set with E. coli IH3080, the “Activity w. rifampin: growth inhibition around a well” value was 0 square millimeters and the “Direct activity: growth inhibition around a well” value turned out to be 0 square millimeters. For the same compound, in the data set with bacteria, the “Concentration that inhibits the growth of bacteria” value is 128 µg/mL.

Source of the values: patent US9090669B2, “Short fatty acid tail polymyxin derivatives and uses thereof” (priority 2008, dated 2015).
